This passage reports Ki and IC50 results from patent US5516797A, “Immunosuppressive compounds” (Vertex Pharmaceuticals, Incorporated, priority 1994, dated 1996).

The target in assay [1] is FK-506 binding protein (FKBP) (Homo sapiens, UniProt P62942). The experiment in a line: Inhibition of PPIase (rotamase) enzyme activity of FKBP (apparent Ki). The conditions noted are these: substrate N-succinylAla-Ala-Pro-Phe-p-nitroanilide, chymotrypsin-coupled. Format: biochemical. The source says: The inhibition of the PPIase (rotamase) enzyme activity of the FKBP (apparent "Ki" values) can also be measured according to the methods described by either Harding, M. W. et al., Nature 341:758-760 (1989) or Siekierka, J. J. et al., Nature 341:755-757 (1989). The cis-trans isomerization of the proline-alanine peptide bond in a model substrate, N-succinylAla-Ala-Pro-Phe-p-nitroanilide, is monitored spectrophotometrically in a coupled assay with chymotrypsin, which releases 4-nitroanilide from the trans form of the substrate. Fischer, G. et al., Nature 337:476-478 (1989). The inhibitory effect of the addition of different concentrations of inhibitor on the extent of the reaction is determined, and analysis of the change in first order rate constant as a function of inhibitor concentration yields an estimate of the apparent Ki value.
Chain of FK-506 binding protein (FKBP) (P62942 whole entry): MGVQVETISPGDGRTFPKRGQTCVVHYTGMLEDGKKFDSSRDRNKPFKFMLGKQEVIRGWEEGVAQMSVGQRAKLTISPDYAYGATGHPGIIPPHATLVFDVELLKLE

The test system of assay [2] is human peripheral blood lymphocytes. The experiment in a line: Mitogenesis assay OKT3: inhibition of proliferation of human PBLs. Format: cell-based. The conditions noted are these: Lymphocyte, OKT3 (10^-4 dilution final), 48 h incubation. As to the method:
(§1) PMA and OKT3mitogens used to stimulate proliferation of human peripheral
(§2) blood lymphocytes (PBC). Compounds are evaluated on their ability to
(§3) Fresh peripheral blood lymphocytes (PBLs) from LeukoPak cells or whole blood from random normal blood donors (tested HIV-negative and hepatitis negative) are isolated and separated by density centrifugation over Histopaque 1077 (Sigma Chemical Co., St. Louis, Mo.). The murine CTLL cytotoxic T cell line and the human Jurkat T cell line are from ATCC (CTLL-2 ATCC TIB214, JURKAT CLONE E6-1 ATCC TIBl52). The human allogeneic B cell lines used for activation of the fresh PBLs are EBV-transformed lymphocytes from normal healthy adult donors with two completely different HLAhaplotypes. All cell lines were routinely tested for the presence of Mycolasma contamination using the GibcoMycotect test kit and are Mycolasma-free. Culture medium consksts of RPMI 1640 (Gibco, Grand Island, N.Y.) containing penicillin (50 U/ml) and streptomycin (50 μg/ml), L-glutamine 2 mM, 2 mercaptoethanol (5×10^-5), 10% heat-inactivated FCS and 10 mM HEPES.
(§4) All chemical stocks were dissolved in DMSO.
(§5) Mitogenesis Assays ("PMA" and "OKT3")
(§6) After 48 h incubation (37° C., 5% CO2), cells were pulsed with 1 μCi of ^3 H-thymidine, harvested 24 h later with a Tom Tek cell harvester, and counted in LKB β-scintillation counter.

For assay [3] the test system is unchanged. Nature of the assay: Mitogenesis assay PMA: inhibition of proliferation of human PBLs. Format: cell-based. The settings on record: Lymphocyte, PMA (10 ng/ml) plus ionomycin (250 ng/ml), 48 h incubation. The procedure: as §1, §2, §3, §4, §5, §6
In assay [4] the test system is PBLs stimulated with JVM human viral transformed B lymphoblastoid cells. The experiment in a line: MLR bioassay JVM: inhibition of proliferation in mixed lymphocyte reaction. In kind it is cell-based. The settings on record: Lymphoblastoid cell, pulsed on day 6, harvested 24 h later. The procedure: (§7) LB and JVMhuman viraltransformed B lymphoblastoid cell lines stimulated t
(§8) proliferate in a mixed lymphocyte reaction (MLR). The compounds are
(§9) evaluated on their ability to inhibit this proliferation.
as §3, §4
(§10) MLR Bioassays ("LB" and "JVM")
(§11) Antigen activated proliferation of PBLs in a primary mixed lymphocyte reaction was assessed in the presence or absence of different concentrations of tested compounds and control drugs. 5×10^4 fresh PBLs were stimulated with 5×10^3 of Mitomycin C treated-allogeneic EBV-transformed β-lymphoglastoid cells, IB and JVM, in a final volume of 200 μl per well in 96-well round-bottomed plates (Mishell, B. B. and S. M. Shiigi, Selected Methods in Cellular Immunology W. H. Freeman and Co., San Francisco, Calif. (1980); Nelson, P. A. et al., Transplantation 50:286 (1990)). Cultures were pulsed on day 6, harvested 24 h later and counted as in previous section.

For assay [5], the system named is PBLs stimulated with LB human viral transformed B lymphoblastoid cells. Nature of the assay: MLR bioassay LB: inhibition of proliferation in mixed lymphocyte reaction. In kind it is cell-based. The conditions noted are these: Lymphoblastoid cell, pulsed on day 6, harvested 24 h later. The procedure:
as §7, §8, §9, §3, §4, §10, §11

`C=CCOc1cccc(C(=O)C(=O)N2CCCC[C@H]2C(=O)OCc2ccccc2)c1` [Compound 65]: the Ki in assay [1] was 1 µM. Further, the IC50 in assay [2], in assay [3], in assay [4] and in assay [5] was above 10 µM each time.
`COc1cc(C(=O)C(=O)N2CCCC[C@H]2C(=O)OCCCCCc2ccccc2)cc(OC)c1OC` [Compound 70]: the Ki in assay [1] stood at 0.07 µM. The IC50 in assay [2] was 4.5 µM; in assay [3], 7 µM; in assay [4], 9 µM; in assay [5], above 10 µM.
On to `C/C(=C\c1ccccc1)COC(=O)[C@@H]1CCCCN1C(=O)C(=O)c1ccccc1` [Compound 23], for which the Ki in assay [1] came out at 1.5 µM. Moreover, the half-inhibitory concentration (IC50) in assay [2], in assay [3], in assay [4] and in assay [5] was above 10 µM in each case.
With `O=C(C(=O)N1CCCC[C@H]1C(=O)OCCCCc1ccccc1)C1CCOCC1` [Compound 101], the Ki in assay [1] was 0.44 µM. Moreover, the IC50 in assay [2], in assay [3], in assay [4] and in assay [5] was above 10 µM throughout.
Take `CCC(=O)C(=O)N1CCCC[C@H]1C(=O)OCCCCc1ccccc1` [Compound 105]: the Ki in assay [1] is 1.6 µM. The concentration for half-maximal inhibition (IC50) in assay [2], in assay [3], in assay [4] and in assay [5] was above 10 µM throughout.
For the compound `O=C(C(=O)N1CCCC[C@H]1C(=O)OCCCc1ccccc1)C1=CCCCC1` [Compound 89], the Ki in assay [1] turned out to be 0.78 µM. Besides, the IC50 in assay [2] was above 10 µM; in assay [3], 8 µM; in assay [4], above 10 µM; in assay [5], above 10 µM.
As for `O=C(C(=O)N1CCCC[C@H]1C(=O)Oc1cccc2ccccc12)c1ccccc1` [Compound 5], the Ki in assay [1] worked out at 0.9 µM. In addition, the IC50 in assay [2], in assay [3], in assay [4] and in assay [5] was above 10 µM throughout.
Turning to `COc1cc(C(=O)C(=O)N2CCCC[C@H]2C(=O)OCc2ccc(Oc3ccccc3)cc2)cc(OC)c1OC` [Compound 73], the Ki in assay [1] was determined as 0.8 µM. In addition, the half-maximal inhibitory concentration (IC50) in assay [2] is above 10 µM; in assay [3], 8 µM; in assay [4] it was 6 µM; in assay [5] it was 4.5 µM.
On the same counts, the results for `O=C(C(=O)N1CCCC[C@H]1C(=O)OCCCCc1ccccc1)c1ccc2c(c1)OCO2` [Compound 100] are 0.25 µM, above 10 µM, above 10 µM, above 10 µM and above 10 µM.
On the same counts, the results for `COc1cc(C(=O)C(=O)N2CCCC[C@H]2C(=O)OCCCc2ccccc2)cc(OC)c1OC` [Compound 83] are 0.11 µM, 5.5 µM, 5.5 µM, 7.5 µM and 8.5 µM.
Taken in the same sequence, the figures for `COc1cc(C(=O)C(=O)N2CCCC[C@H]2C(=O)OCCc2cccc3ccccc23)cc(OC)c1OC` [Compound 80] were 0.5 µM, 4 µM, 3 µM, 10 µM and 10 µM.
With `COc1cc(C(=O)C(=O)N2CCCC[C@H]2C(=O)OCCC=Cc2ccccc2)cc(OC)c1OC` [Compound 87], the Ki in assay [1] amounted to 0.5 µM. Besides, the IC50 in assay [2] is above 10 µM; in assay [3], 7 µM; in assay [4] it was above 10 µM; in assay [5], above 10 µM.
On to `C/C(=C\[C@H]1CC[C@H](O)CC1)COC(=O)[C@@H]1CCCCN1C(=O)C(=O)c1ccccc1` [Compound 26], for which, in assay [1], the Ki stood at 0.5 µM. Also, the IC50 was 6.5 µM in assay [2], above 10 µM in assay [3], above 10 µM in assay [4] and above 10 µM in assay [5].
Turning to `COc1ccc(/C=C/C(=O)C(=O)N2CCCC[C@H]2C(=O)OCc2ccccc2)cc1` [Compound 45], in assay [1], the Ki stood at 1 µM. Also, the IC50 in assay [2], in assay [3], in assay [4] and in assay [5] was above 10 µM each time.

The term IC50 denotes the midpoint of a concentration-inhibition curve.
